Source: the NIST ThermoML archive (doi:10.1021/je0501843)

Assay: molar heat capacity at constant volume; wn = mass fraction of the nth substance listed
Details: Fluid (supercritical or subcritical phases), Vacuum adiabatic calorimetry, w1 = 0.5001

FC(F)C(F)(F)F [pentafluoroethane] + FCF
Details | molar heat capacity at constant volume [J/K/mol]
363 K, 13894 kPa | 70.07
364 K, 6970 kPa | 80.93
364 K, 7223 kPa | 79.29
364 K, 7494 kPa | 80.29
364 K, 7828 kPa | 75.98
364 K, 10192 kPa | 72.66
364 K, 14207 kPa | 69.59
365 K, 7077 kPa | 80.93
365 K, 7344 kPa | 79.26
365 K, 7632 kPa | 79.75
365 K, 7982 kPa | 75.67
365 K, 10427 kPa | 72.54
365 K, 14520 kPa | 69.04
366 K, 7184 kPa | 80.58
366 K, 7465 kPa | 80.45
366 K, 7771 kPa | 80.4
366 K, 8137 kPa | 76.08
366 K, 10664 kPa | 73.17
366 K, 14835 kPa | 69.94
367 K, 7291 kPa | 80.32
367 K, 7587 kPa | 79.46
367 K, 7907 kPa | 79.31
367 K, 8294 kPa | 74.79
367 K, 10900 kPa | 72.03
367 K, 15148 kPa | 69.1
368 K, 7397 kPa | 79.17
368 K, 7708 kPa | 77.58
368 K, 8044 kPa | 77.88
368 K, 8449 kPa | 74.12
368 K, 11133 kPa | 71.25
368 K, 15462 kPa | 68.32
369 K, 7504 kPa | 79.62
369 K, 7831 kPa | 78.35
369 K, 8183 kPa | 78.65
369 K, 8605 kPa | 76.18
369 K, 11369 kPa | 72.83
369 K, 15777 kPa | 69.74
370 K, 7612 kPa | 79.45
370 K, 7953 kPa | 77.86
370 K, 8323 kPa | 77.55
370 K, 8762 kPa | 76.14
370 K, 11608 kPa | 72.92
370 K, 16094 kPa | 69.84
371 K, 7719 kPa | 78.97
371 K, 8075 kPa | 77.56
371 K, 8460 kPa | 76.45
371 K, 8917 kPa | 74.86
371 K, 11844 kPa | 72.52
371 K, 16410 kPa | 69.31
372 K, 7825 kPa | 78.44
372 K, 8198 kPa | 77.29
372 K, 8601 kPa | 75.95
372 K, 9073 kPa | 74.57
372 K, 12081 kPa | 71.78
372 K, 16724 kPa | 69.08
373 K, 7931 kPa | 77.94
373 K, 8321 kPa | 76.93
373 K, 8740 kPa | 76.42
373 K, 9230 kPa | 74.03
373 K, 12318 kPa | 72.32
373 K, 17037 kPa | 69.04
374 K, 8039 kPa | 79.02
374 K, 8445 kPa | 77.8
374 K, 8878 kPa | 77.52
374 K, 9389 kPa | 74.39
374 K, 12556 kPa | 73.35
374 K, 17355 kPa | 69.94
375 K, 8147 kPa | 78.2
375 K, 8567 kPa | 75.61
375 K, 9016 kPa | 76.25
375 K, 9544 kPa | 73.41
375 K, 12795 kPa | 71.55
375 K, 17669 kPa | 69.58
376 K, 8254 kPa | 77.5
376 K, 8690 kPa | 75.69
376 K, 9155 kPa | 75.06
376 K, 9701 kPa | 73.09
376 K, 13033 kPa | 71.53
376 K, 17984 kPa | 69.16
377 K, 8362 kPa | 78.12
377 K, 8813 kPa | 76.87
377 K, 9295 kPa | 76.67
377 K, 9858 kPa | 74.31
377 K, 13272 kPa | 72.67
377 K, 18301 kPa | 69.67
378 K, 8469 kPa | 77.78
378 K, 8937 kPa | 76.5
378 K, 9437 kPa | 77.01
378 K, 10018 kPa | 74.83
378 K, 13511 kPa | 71.98
378 K, 18619 kPa | 69.86
379 K, 8575 kPa | 76.76
379 K, 9060 kPa | 75.82
379 K, 9576 kPa | 76.42
379 K, 10174 kPa | 74.57
379 K, 13747 kPa | 71.87
379 K, 18935 kPa | 70.14
380 K, 8683 kPa | 76.61
380 K, 9183 kPa | 75.69
380 K, 9715 kPa | 75.6
380 K, 10331 kPa | 73.35
380 K, 13988 kPa | 71.55
381 K, 8790 kPa | 77.44
381 K, 9306 kPa | 77.28
381 K, 9856 kPa | 75.26
381 K, 10492 kPa | 73.9
381 K, 14227 kPa | 72.04
382 K, 8897 kPa | 78.41
382 K, 9432 kPa | 76.92
382 K, 9996 kPa | 76.48
382 K, 10651 kPa | 74.52
382 K, 14466 kPa | 72.98
383 K, 9005 kPa | 77.33
383 K, 9553 kPa | 75.97
383 K, 10136 kPa | 75.35
383 K, 10808 kPa | 74.44
383 K, 14706 kPa | 72.4
384 K, 9112 kPa | 76.6
384 K, 9679 kPa | 76.51
384 K, 10277 kPa | 75.34
384 K, 10967 kPa | 74.6
384 K, 14944 kPa | 71.93
385 K, 9219 kPa | 77.25
385 K, 9804 kPa | 75.82
385 K, 10418 kPa | 76.16
385 K, 11125 kPa | 74.07
385 K, 15188 kPa | 72.26
386 K, 9326 kPa | 78.28
386 K, 9929 kPa | 76.35
386 K, 10558 kPa | 76.6
386 K, 11283 kPa | 75.16
386 K, 15426 kPa | 73.47
387 K, 9434 kPa | 77.16
387 K, 10051 kPa | 76.61
387 K, 10699 kPa | 76.14
387 K, 11442 kPa | 74.89
387 K, 15666 kPa | 72.66
388 K, 9540 kPa | 76.32
388 K, 10174 kPa | 74.86
388 K, 10840 kPa | 75.57
388 K, 11602 kPa | 73.37
388 K, 15904 kPa | 71.19
389 K, 9649 kPa | 77.31
389 K, 10296 kPa | 75.87
389 K, 10980 kPa | 76.71
389 K, 11761 kPa | 73.84
389 K, 16147 kPa | 71.61
390 K, 9756 kPa | 77.57
390 K, 10421 kPa | 77.3
390 K, 11124 kPa | 76.88
390 K, 11922 kPa | 75.02
390 K, 16388 kPa | 72.19
391 K, 9862 kPa | 77.21
391 K, 10547 kPa | 76.53
391 K, 11263 kPa | 76.5
391 K, 12081 kPa | 74.96
391 K, 16627 kPa | 71.79
392 K, 9969 kPa | 77.4
392 K, 10670 kPa | 75.59
392 K, 11403 kPa | 75.77
392 K, 12239 kPa | 73.58
392 K, 16868 kPa | 71.21
393 K, 10077 kPa | 78.13
393 K, 10795 kPa | 76.57
393 K, 11546 kPa | 75.66
393 K, 12400 kPa | 74.26
393 K, 17110 kPa | 71.47
394 K, 10185 kPa | 78.09
394 K, 10920 kPa | 77.19
394 K, 11688 kPa | 76.6
394 K, 12560 kPa | 75.24
394 K, 17351 kPa | 71.82
395 K, 10292 kPa | 77.54
395 K, 11045 kPa | 76.74
395 K, 11829 kPa | 75.92
395 K, 12720 kPa | 73.89
395 K, 17590 kPa | 71.67
396 K, 10400 kPa | 77.68
396 K, 11168 kPa | 76.85
396 K, 11972 kPa | 76.16
396 K, 12880 kPa | 73.78
396 K, 17831 kPa | 71.16
397 K, 10508 kPa | 78.41
397 K, 11292 kPa | 76.06
397 K, 12113 kPa | 76.4
397 K, 13040 kPa | 74.36
397 K, 18073 kPa | 71.18
398 K, 10616 kPa | 78.25
398 K, 11415 kPa | 76.66
398 K, 12256 kPa | 75.92
398 K, 13199 kPa | 74.81
398 K, 18315 kPa | 72.43
399 K, 10723 kPa | 77.16
399 K, 11538 kPa | 76.8
399 K, 12395 kPa | 76.53
399 K, 13361 kPa | 74.08
399 K, 18556 kPa | 72.11
